For 35 compounds, inhibition results are on record in patent US7906522B2, “2-aminoquinazoline derivatives” (Kyowa Hakko Kirin Co., Ltd, priority 2005, dated 2011).

Structures are written as SMILES. Bounds are passed on as bounds.

The target of this test is T1, Activated human p38α (Homo sapiens, UniProt Q16539).
T1 construct: purchased Upstate Biotechnology Inc. 14-251
T1 sequence (Q16539 whole entry): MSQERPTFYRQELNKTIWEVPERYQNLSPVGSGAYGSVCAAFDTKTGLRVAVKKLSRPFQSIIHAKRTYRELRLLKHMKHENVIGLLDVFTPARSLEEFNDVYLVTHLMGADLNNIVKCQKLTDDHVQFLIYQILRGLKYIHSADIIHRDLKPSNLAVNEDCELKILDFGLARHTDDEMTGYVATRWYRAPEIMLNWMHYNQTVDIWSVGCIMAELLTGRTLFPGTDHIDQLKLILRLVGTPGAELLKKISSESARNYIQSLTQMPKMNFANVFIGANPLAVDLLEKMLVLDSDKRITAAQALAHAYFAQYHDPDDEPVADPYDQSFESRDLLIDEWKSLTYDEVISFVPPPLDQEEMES
As to the kind of experiment: p38MAP kinase inhibition test. The test is classed as biochemical. The following applies: at a concentration of 1 μmol/L; substrate myelin basic protein, ATP 20 μmol/L, [γ-32P]ATP; read-out: enzyme inhibitory activity. The procedure:
p38MAP Kinase Inhibition Test
Activated human p38α was purchased from Upstate Biotechnology Inc. (Catalog No. 14-251). P38MAP kinase inhibitory activity was measured by the procedure described below with reference to the method by Whitmarsh A. J. and Davis R. J. [Methods in Enzymology (Method. Enzymol.), vol. 332, p. 319-336 (2001)]. As the substrate to be phosphorylated, a myelin basic protein (Catalog No. 133-13493, Wako Pure Chemical Industries, Ltd.) (20 μg/assay) was used. The reaction was carried out in a solution containing 3-[N-Morpholino]propanesulfonic acid (MOPS) (20 mmol/L, pH 7.2), β-glycerophosphoric acid (Sigma Corp.) (25 mmol/L), ethylenebis(oxyethylenenitrilo)tetraacetic acid (EGTA) (1 mmol/L), […] (Sigma-Aldrich Corp.) (1 mmol/L), dithiothreitol (DTT, Wako Pure Chemical Industries, Ltd.) (1 mmol/L), adenosine 5′-triphosphate (ATP, Sigma Corp.) (20 μmol/L), and MgCl2 (18.75 mmol/L) (total 40 μL/assay). The reaction was started by adding human p38α and [γ-^32P]ATP (1 μCi/assay), and incubation was performed at 30° C. for 15 minutes. The reaction was terminated by adding 4.5% v/v phosphoric acid (10 μL/well). Then, 45 μL of the reaction mixture was adsorbed onto phosphocellulose paper (p81 paper, Code No. 3698023, Whatman International, Maidstone, UK). The phosphocellulose paper was washed with 0.75% v/v phosphoric acid. Then, the radioactivity of the phosphorylated myelin basic protein ([^32P]) remaining on the phosphocellulose paper was measured with a scintillation counter (TRI-CARB2700TR, PerkinElmer, Boston, Mass., USA) using program No. 27 (data mode: cpm, measurement time: 1 min, Background substract: none, energy range measured: LL 0.0-UL 2000) or a scintillation counter (LS6500, BeckmanCoulter, Fullerton, Calif., USA) using program No. 17 (data mode: cpm, measurement time: 1 min, Background substract: none, energy range measured: high). The test compound was dissolved in DMSO before addition.
In the case of `N[C@H]1CC[C@H](Nc2ncc3cc(-c4ccccc4Cl)c(O)cc3n2)CC1` [Compound 158, 2-(trans-4-Aminocyclohexylamino)-6-(2-chlorophenyl)-7-hydroxyquinazoline], the inhibition at 1 µM is not below 50%.
In the case of `CC(C)Nc1ncc2cc(-c3ccccc3Cl)c(OCCO)cc2n1` [Compound 23, 6-(2-Chlorophenyl)-7-(2-hydroxyethyloxy)-2-isopropylaminoquinazoline] it was not below 50%; in that of `COc1cc2nc(NC(C)(C)C)ncc2cc1-c1ccccc1C` [Compound 167, 2-(tert-Butylamino)-7-methoxy-6-(2-methylphenyl)quinazoline], not below 50%; in that of `CC(C)Nc1ncc2cc(-c3cc(NC(=O)c4ccnc(N5CCOCC5)c4)ccc3O)ccc2n1` [Compound 266, 6-{2-Hydroxy-5-[(2-morpholinopyridin-4-yl)carbonylamino]phenyl]-2-(isopropylamino)quinazoline], not below 50%.
In the case of `CC(C)Nc1ncc2cc(-c3cccc(NC(=O)C4CCC4)c3)c(O)cc2n1` [Compound 294, 6-[3-(Cyclobutylcarbonylamino)phenyl]-7-hydroxy-2-(isopropylamino)quinazoline] it was not below 50%; in that of `Cc1ccccc1-c1cc2cnc(Nc3c(Cl)cc([N+](=O)[O-])cc3Cl)nc2cc1O` [Compound 179, 2-(2,6-Dichloro-4-nitroanilino)-7-hydroxy-6-(2-methylphenyl)quinazoline], not below 50%.
Turning to `COc1cc2nc(NC(C)C)ncc2cc1-c1ccccc1C=NO` [Compound 58], the inhibition at 1 µM was not below 50%.
In the case of `Cc1ccc(-n2nc(C(C)(C)C)cc2C(=O)Nc2cccc(-c3cc4cnc(NC(C)C)nc4cc3O)c2)cc1` [Compound 359, 6-{3-[5-tert-Butyl-2-(4-methylphenyl)-2H-pyrazol-3-ylcarbonylamino]phenyl}-7-hydroxy-2-(isopropylamino)quinazoline] it was not below 50%; in that of `O=C(c1ccccc1)c1cc2cnc(NC3CCOCC3)nc2cc1O` [Compound 138, 6-Benzoyl-7-hydroxy-2-(4-tetrahydropyranylamino)quinazoline], not below 50%; in that of `COc1cc2nc(NC(C)C)ncc2cc1-c1cccc(NC(=O)c2ccc(C(F)(F)F)cc2)c1` [Compound 213, 2-Isopropylamino-7-methoxy-6-{3-[(4-trifluoromethylphenyl)carbonylamino]phenyl}quinazoline], not below 50%.
`COc1cc2nc(N[C@@H](C)c3ccccc3)ncc2cc1-c1ccccc1Cl` [Compound 9, (S)-6-(2-Chlorophenyl)-7-methoxy-2-[(1-phenylethyl)amino]quinazoline]: the inhibition at 1 µM is not below 50%.
In the case of `COc1cc2nc(NC(C)C)ncc2cc1-c1cc([N+](=O)[O-])ccc1CO` [Compound 223, 6-(2-Hydroxymethyl-5-nitrophenyl)-2-isopropylamino-7-methoxyquinazoline] it was not below 50%.
For `Cc1ccc(NC(=O)C2CC2)cc1-c1cc2cnc(NC(C)C)nc2cc1O` [Compound 295, 6-(5-Cyclopropylcarbonylamino-2-methylphenyl)-7-hydroxy-2-(isopropylamino)quinazoline], the inhibition at 1 µM is not below 50%.
In the case of `Cc1cccc(C(=O)c2cc3cnc(NC(C)C)nc3cc2O)c1` [Compound 118, 7-Hydroxy-2-isopropylamino-6-(3-methylbenzoyl)quinazoline] it was not below 50%; in that of `CC(C)Nc1ncc2cc(-c3ccccc3Cl)c(OCc3ccccc3)cc2n1` [Compound 27, 7-Benzyloxy-6-(2-chlorophenyl)-2-isopropylaminoquinazoline], not below 50%; in that of `CCCOC(=O)c1c(OC)c(-c2ccccc2Cl)cc2cnc(NC(C)C)nc12` [Compound 62, 6-(2-Chlorophenyl)-2-isopropylamino-7-methoxy-8-(propoxycarbonyl)quinazoline], not below 50%.
In the case of `COc1c(-c2ccccc2Cl)cc2cnc(NC(C)C)nc2c1C(=O)N1CCOCC1` [Compound 66, 6-(2-Chlorophenyl)-2-isopropylamino-8-(morpholinocarbonyl)-7-methoxyquinazoline] it was not below 50%; in that of `CC(C)Nc1ncc2cc(-c3ccccc3Cl)c(OCCCCO)cc2n1` [Compound 25, 6-(2-Chlorophenyl)-7-(4-hydroxybutyloxy)-2-isopropylaminoquinazoline], not below 50%; in that of `COCOc1c(-c2ccccc2Cl)cc2cnc(NC(C)C)nc2c1-c1ccccc1F` [Compound 99, 6-(2-Chlorophenyl)-8-(2-fluorophenyl)-2-isopropylamino-7-(methoxymethyloxy)quinazoline], not below 50%.
Turning to `CC(C)Nc1ncc2cc(-c3cc(NC(=O)c4ccc[nH]4)ccc3CO)ccc2n1` [Compound 255, 6-{2-Hydroxymethyl-5-[(1H-pyrrol-2-yl)carbonylamino]phenyl}-2-(isopropylamino)quinazoline], the inhibition at 1 µM was not below 50%.
In the case of `COc1cc2nc(NC(C)C)ncc2cc1-c1ccccc1Cl` [Compound 4, 6-(2-Chlorophenyl)-2-isopropylamino-7-methoxyquinazoline] it was not below 50%.
As for `COc1cc2nc(NC3CCN(S(C)(=O)=O)CC3)ncc2cc1-c1ccccc1Cl` [Compound 12, 6-(2-Chlorophenyl)-2-[1-(methylsulfonyl)piperidin-4-ylamino]-7-methoxyquinazoline], the inhibition at 1 µM was not below 50%.
For `CC(=O)Nc1ccc(CO)c(-c2cc3cnc(NC(C)C)nc3cc2C)c1` [Compound 280, 6-[(5-Acetylamino-2-hydroxymethyl)phenyl]-2-isopropylamino-7-methylquinazoline] the value was not below 50%; for `COc1cc2nc(NC3CCN(S(C)(=O)=O)CC3)ncc2cc1-c1ccccc1C=O` [Compound 237, 6-(2-Formylphenyl)-7-methoxy-2-[1-(methylsulfonyl)piperidin-4-ylamino]quinazoline], not below 50%.
In the case of `CC(=O)Nc1cccc(-c2cc3cnc(NC(C)C)nc3cc2C)c1` [Compound 277, 6-[3-(Acetylamino)phenyl]-2-isopropylamino-7-methylquinazoline] it was not below 50%; in that of `COc1cc2nc(N[C@H]3CC[C@H](N)CC3)ncc2cc1-c1ccccc1Cl` [Compound 5, 2-(trans-4-Aminocyclohexylamino)-6-(2-chlorophenyl)-7-methoxyquinazoline], not below 50%.
For `CC(C)Nc1ncc2cc(-c3cccc(O)c3)c(O)cc2n1` [Compound 244, 7-Hydroxy-6-(3-hydroxyphenyl)-2-(isopropylamino)quinazoline] the value was not below 50%.
For the compound `COc1cc2nc(NC(C)C)ncc2cc1-c1cc(NC(C)=O)ccc1C` [Compound 230, 6-(5-Acetylamino-2-methylphenyl)-2-isopropylamino-7-methoxyquinazoline], the inhibition at 1 µM is not below 50%.
Consider `CCS(=O)(=O)N[C@H]1CC[C@H](Nc2ncc3cc(-c4ccccc4Cl)c(OC)cc3n2)CC1` [Compound 147, 6-(2-Chlorophenyl)-2-[trans-4-(ethylsulfonylamino)cyclohexylamino]-7-methoxyquinazoline], for which the inhibition at 1 µM is not below 50%.
In the case of `CC(C)Nc1ncc2cc(-c3ccc(F)cc3F)c(O)c(-c3ccc(F)cc3)c2n1` [Compound 84, 6-(2,4-Difluorophenyl)-8-(4-fluorophenyl)-2-isopropylamino-7-hydroxyquinazoline] it was not below 50%; in that of `CC(C)Nc1ncc2cc(C(=O)c3ccc(F)cc3)c(O)cc2n1` [Compound 131, 6-(4-Fluorobenzoyl)-7-hydroxy-2-(isopropylamino)quinazoline], not below 50%.
Regarding `COc1cc2nc(NC(C)C)ncc2cc1-c1ccccc1CO` [Compound 182, 6-[2-(Hydroxymethyl)phenyl]-2-isopropylamino-7-methoxyquinazoline], the inhibition at 1 µM was not below 50%.
In the case of `COc1cc2nc(NC(C)C)ncc2cc1-c1cccc(OCc2ccccc2)c1` [Compound 195, 6-[3-(Benzyloxy)phenyl]-2-isopropylamino-7-methoxyquinazoline] it was not below 50%.
In the case of `CC(C)Nc1ncc2cc(-c3cccc(NC(=O)c4ccc[nH]4)c3)ccc2n1` [Compound 258, 2-Isopropylamino-6-{3-[(1H-pyrrol-2-yl)carbonylamino]phenyl}quinazoline], the inhibition at 1 µM was not below 50%.
For `COCOc1cc2nc(NC(C)C)ncc2cc1-c1ccccc1Cl` [Compound 26, 6-(2-Chlorophenyl)-2-isopropylamino-7-methoxymethyloxyquinazoline], the inhibition at 1 µM was not below 50%.
